Assay results from patent US20150011483A1, “Inhibition of HIV-1 Infection by Potent Metallocene Conjugated Peptide Through Conformational Entrapment of Envelope GP120” (priority 2007, published 2015).
Where two headings read alike, the source gives them in different places.

Key:
HIV-1 strain BaL [1] = settings: P4-CCR5 cells (Gopi et al., 2008); read-out: IC50, inhibition of infection by HIV-1 BaL; cited from earlier work
P4-CCR5 cells [2] = settings: at concentrations corresponding to IC50 values; cited from earlier work
HIV-1 strain BaL [3] = assay: Combination of HNG-156 and cyanovirin-N against HIV-1 BaL infection of P4-CCR5 cells; assay type: cell-based; settings: for IC50, viral infectivity inhibition: HIV-1 BaL, P4-CCR5 cells, combination at constant ratio 1:8.2 by weight, plotted against first-named component
Procedure: Dextran sulfate (DS) was used as a comparative. […] Combination Indexes (CIs) were calculated using the CalcuSyn software. […] CI values were calculated for 50, 75, and 90% HIV inhibition.

HIV-1 92UG037-08 gp120 = assay: SPR direct binding to immobilized 92UG037-08 gp120; settings: HIV-1 env 92UG037-08 (A)
sCD4 = target: T1, sCD4 (Homo sapiens, UniProt P01730); assay: SPR direct binding of peptide to immobilized sCD4
T1 construct: made in house; host or cells: CHO cells

gp120 binding to sCD4 = target: T2, gp120 binding to sCD4 (Human immunodeficiency virus type 1 group M subtype B, UniProt P35961); set-up: species or system HIV-1; settings: in the presence of HNG-156
T2 construct: made in house; host or cells: sCD4: CHO cells; gp120 (if YU2): Drosophila S2 cells

YU2 gp120 binding to 17b = target: T3, YU2 gp120 binding to 17b (Human immunodeficiency virus type 1 group M subtype B, UniProt P35961); assay: SPR competition: inhibition of YU2 gp120 binding to immobilized 17b; set-up: species or system HIV-1; settings: 100 nM YU2 gp120, peptide 10 to 600 nM
T3 construct: made in house; host or cells: gp120: Drosophila S2 cells
Excerpt: (§1) In one experiment, antibodies b6, b12, or F105 were immobilized on a biosensor CM5 chip.

[4] = target: T4, YU2 gp120 binding to sCD4 (Human immunodeficiency virus type 1 group M subtype B, UniProt P35961); assay: SPR competition: inhibition of YU2 gp120 binding to immobilized sCD4; set-up: species or system HIV-1; settings: 100 nM YU2 gp120, peptide 10 to 600 nM
T4 construct: made in house; host or cells: gp120: Drosophila S2 cells; sCD4: CHO cells
Excerpt: as §1

17b = assay: SPR direct binding of peptide to immobilized 17b
gp120 binding to 2G12 = target: T5, gp120 binding to 2G12 (Human immunodeficiency virus type 1 group M subtype B, UniProt P35961); assay: Effect on gp120 binding to antibody 2G12; set-up: species or system HIV-1
T5 construct: with a constant concentration (100 nM) of YU2 gp120

P4-CCR5 cells [5] = assay: In vitro cytotoxicity, MTT assay; assay type: cell-based; settings: concentrations as high as 0.1 mg/ml, 2 hours
Procedure: P4-CCR5 cells were seeded at a density of 4×10^4 cells/well in a 96 well plate approximately 18 hours prior to experiment. […] The cells were subsequently washed and assessed for viability using a 3-(4,5-dimethylthiazol-2-yl)-2,5-diphenyltetrazolium bromide (MTT) assay of viability (previously described in Krebs et al. (1999). Concentrations were tested in triplicate in two independent assays.

HIV-1 strain BaL [6] = assay: Inhibition of HIV-1 BaL infection of P4-CCR5 cells (whole virus assay); assay type: cell-based
Excerpt: Infectivity remaining is expressed relative to mock-treated, HIV-1-infected cells.

HIV-1 YU2 gp120 = target: T6, HIV-1 YU2 gp120 (Human immunodeficiency virus type 1 group M subtype B, UniProt P35961); assay: SPR direct binding to immobilized YU2 gp120
T6 construct: made in house; host or cells: Drosophila S2 cells
Procedure: All surface plasmon resonance experiments (SPR) were performed on a BIA3000 optical biosensor (Biocore, Inc., Uppsala, Sweden). […] For direct binding experiments, YU2 gp120 was immobilized on the surface (˜4000RU); peptide analytes in PBS buffer were passed over the surface at a flow rate of 50 μL/min. with 5 minute association phase and 5 minute dissociation phase. […] The indicated analytes were passed over the surfaces at a flow rate of 50 μL/minute, with 2.5 minute association phase and 2.5 minute dissociation phase.
Data analysis was performed using BIAEvaluation® 4.0 software (Biacore Inc., NJ). The responses of a buffer injection and responses from the control surface to which the mAb 2B6R was immobilized, were subtracted to account for nonspecific binding. Experimental data were fitted to a simple 1:1 Langmuir binding model with a parameter included for mass transport. The average kinetic parameters (association [ka] and dissociation [kd] rates) generated from a minimum of four datasets were used to define equilibrium association (KA) and dissociation constants (KD).

In the case of `CC[C@H](C)[C@H](NC(=O)[C@@H](N)CCCNC(=N)N)C(=O)N[C@@H](CC(N)=O)C(=O)N[C@@H](CC(N)=O)C(=O)N[C@H](C(=O)N1CCC[C@H]1C(=O)N[C@@H](Cc1c[nH]c2ccccc12)C(=O)N[C@@H](CO)C(=O)N[C@@H](CCC(=O)O)C(=O)N[C@@H](C)C(=O)N[C@@H](CCSC)C(=O)N[C@@H](CCSC)C(=O)O)[C@@H](C)CC` [12p1, reference compound], the IC50 (HIV-1 strain BaL [1]) is listed as 48000 nM.

In the case of RINNIPWSEAMM [HNG-124], the “impact on cell viability” value (P4-CCR5 cells [2]) is listed as “no or minimal impact” and the IC50 (HIV-1 strain BaL [1]) is listed as 418 nM.

In the case of `CC[C@H](C)[C@H](NC(=O)[C@@H](N)CCCNC(=N)N)C(=O)N[C@@H](CC(N)=O)C(=O)N[C@@H](CC(N)=O)C(=O)N[C@H](C(=O)N1C[C@@H](n2cc([C]34[CH]5[CH]6[CH]7[CH]3[Fe]6754389%10[CH]4[CH]3[CH]8[CH]9[CH]4%10)nn2)C[C@H]1C(=O)N[C@@H](Cc1c[nH]c2ccccc12)C(=O)N[C@@H](CO)C(=O)N[C@@H](CCC(=O)O)C(=O)N[C@@H](C)C(=O)N[C@@H](CCSC)C(=O)N[C@@H](CCSC)C(N)=O)[C@@H](C)CC` (some centres unmarked) [HNG-156], the “IC50, viral infectivity inhibition” value (HIV-1 strain BaL [3]) is reported as 0.213 microgram/milliter, the Kd (HIV-1 92UG037-08 gp120) is reported as 16.3 nM and the ka (HIV-1 92UG037-08 gp120) is reported as 106000 M⁻¹ s⁻¹. The “direct binding to sCD4” value (sCD4) was “no direct binding”, the “reduction of the affinity of CD4” value (gp120 binding to sCD4) was “reduced by two orders of magnitude” and the “inhibition of binding of gp120 to 17b surface” value (YU2 gp120 binding to 17b) was “complete inhibition”. The “inhibition of binding of gp120 to sCD4 surface” value [4] was “complete inhibition”, the “direct binding to 17b” value (17b) was “no direct binding” and the “effect on the binding of 2G12” value (gp120 binding to 2G12) was “did not show any effect”. For the same molecule, the “effect on P4-CCR5 cell viability” value (P4-CCR5 cells [5]) was “no effect”, the “more effective than HNG-105 in inhibiting infection” value (HIV-1 strain BaL [6]; HIV-1 BaL) was “approximately 15 fold” and the kd (HIV-1 YU2 gp120; HIV-1 env YU2, Table 1) was 0.000955 s⁻¹. For the same molecule, the “affinity higher than HNG-105's affinity” value (HIV-1 YU2 gp120; YU2 gp120) was “roughly 3 fold”.

In the case of RINNIPWSEAMM [HNG-137], the “impact on cell viability” value (P4-CCR5 cells [2]) is listed as “no or minimal impact” and the IC50 (HIV-1 strain BaL [1]) is listed as 610 nM.

In the case of RINNIPWSEAMM [HNG-113], the “impact on cell viability” value (P4-CCR5 cells [2]) is listed as “no or minimal impact” and the IC50 (HIV-1 strain BaL [1]) is listed as 156 nM.

For dextran sulfate [DS], the “IC50, viral infectivity inhibition” value (HIV-1 strain BaL [3]) was 0.900 microgram/milliter, the IC50 (HIV-1 strain BaL [6]; result of one trial) was 9800 nM and the “IC50, inhibition of infection by HIV-1 BaL” value (HIV-1 strain BaL [6]; result of one trial) was 4.9 µg/mL.

B1: Cyanovirin-N: 11 kD protein originally isolated from the cyanobacteria Nostoc ellipsosporum, binds gp120 (protein, listed as Nostoc ellipsosporum)
chain: LGKFSQTCYNSAIQGSVLTSTCERTNGGYNTSSIDLNSVIENVDGSLKWQPSNFIETCRNTQLAGSSELAAECKTRAQQFVSTKINLDDHIANIDGTLKYE
modifications: DISULFID (8)..(22) disulfide bond
In the case of B1, the “improvement in the efficacy of CV-N in viral inhibition upon addition of HNG-156” value (HIV-1 strain BaL [3]) is reported as roughly 10 fold, the “IC50, viral infectivity inhibition” value (HIV-1 strain BaL [3]) is reported as 0.026 microgram/milliter and the “EC50 Dm” value (HIV-1 strain BaL [3]; dose at which 50% neutralization occurs) is reported as 0.045 µg/mL.
